Laboratory results taken from patent US20090048203A1, “SUBSTITUTED ADENINES AND THE USES THEREOF” (priority 2004, published 2009).
In brackets after ≈: the same amount, converted by molar mass.

Columns and labels:
S. pneumoniae LigA = S. pneumoniae LigA (Streptococcus pneumoniae serotype 4, UniProt Q97QT2); test: DNA ligase inhibition, FRET detection assay; format: biochemical; details: ten compound concentrations; read-out: IC50 (μM) against S. pneumoniae LigA
Protocol: Compounds were tested for inhibition of DNA ligase using a Fluorescence Resonance Energy Transfer (FRET) detection assay as previously described (Chen et al. 2002. Analytical Biochemistry 309: 232-240; Benson et al. 2004. Analytical Biochemistry 324:298-300). Assays were performed in 384-well polystyrene flat-bottom black plates in 30 μl reactions containing 3 μl compound dissolved in dimethylsulfoxide, 20 μl 1.5× Enzyme Working Solution (25% glycerol, 45 mM potassium chloride, 45 mM ammonium sulfate, 15 mM dithiothreitol, 1.5 mM ethylenediaminetetraacetic acid (EDTA), 0.003% Brij 35, 75 mM MOPS pH 7.5, 150 nM bovine serum albumin, 1.5 μM NAD^+, 60 nM DNA substrate, 0.375 nM enzyme in water) and 7 μl […] magnesium chlorine solution (96 mM magnesium chloride, 20% glycerol in water) to initiate the reaction. The DNA substrate is similar to that described in Benson et al. (2004. Analytical Biochemistry 324:298-300). The assay reactions were incubated at room temperature for approximately 20 minutes before being terminated by the addition of 30 μl Quench reagent (8 M Urea, 1 M Trizma base, 20 mM EDTA in water). Plates were read in a Tecan Ultra plate reader at two separate wavelengths—Read 1: excitation 485, emission 535, Read 2: excitation 485, emission 595. Data is initially expressed as a ratio of the 595/535 emission values and percent inhibition values were calculated using […] dimethylsulfoxide (no compound) as the 0% inhibition and EDTA-containing (50 mM) reactions as 100% inhibition controls. Compound potency was based on IC50 measurements determined from reactions performed in the presence of ten different compound concentrations.

S. pneumoniae = test: Bacterial susceptibility testing, microbroth dilution (MIC); format: cell-based; details: Streptococcus pneumoniae; lowest drug concentration able to reduce growth by 80% or more; read-out: MIC (μg/ml) against S. pneumoniae
Protocol: Compounds were tested for antimicrobial activity by susceptibility testing using microbroth dilution methods recommended by NCCLS. Compounds were dissolved in dimethylsulfoxide and tested in 10 doubling dilutions in the susceptibility assays such that the final dimethylsulfoxide concentration in the assay was 2% (v/v). The organisms used in the assay were grown overnight on appropriate agar media and then suspended in the NCCLS-recommended liquid susceptibility-testing media. The turbidity of each suspension was adjusted to be equal to a 0.5 McFarland standard, a further 1-in-10 dilution was made into the same liquid medium to prepare the final organism suspension, and 100 μL of this suspension was added to each well of a microtiter plate containing compound dissolved in 2 μL of dimethylsulfoxide. Plates were incubated under appropriate conditions of atmosphere and temperature and for times according to NCCLS standard methods prior to being read. The Minimum Inhibitory Concentration (MIC) was determined as the lowest drug concentration able to reduce growth by 80% or more.

Sequence of S. pneumoniae LigA (Q97QT2 whole entry): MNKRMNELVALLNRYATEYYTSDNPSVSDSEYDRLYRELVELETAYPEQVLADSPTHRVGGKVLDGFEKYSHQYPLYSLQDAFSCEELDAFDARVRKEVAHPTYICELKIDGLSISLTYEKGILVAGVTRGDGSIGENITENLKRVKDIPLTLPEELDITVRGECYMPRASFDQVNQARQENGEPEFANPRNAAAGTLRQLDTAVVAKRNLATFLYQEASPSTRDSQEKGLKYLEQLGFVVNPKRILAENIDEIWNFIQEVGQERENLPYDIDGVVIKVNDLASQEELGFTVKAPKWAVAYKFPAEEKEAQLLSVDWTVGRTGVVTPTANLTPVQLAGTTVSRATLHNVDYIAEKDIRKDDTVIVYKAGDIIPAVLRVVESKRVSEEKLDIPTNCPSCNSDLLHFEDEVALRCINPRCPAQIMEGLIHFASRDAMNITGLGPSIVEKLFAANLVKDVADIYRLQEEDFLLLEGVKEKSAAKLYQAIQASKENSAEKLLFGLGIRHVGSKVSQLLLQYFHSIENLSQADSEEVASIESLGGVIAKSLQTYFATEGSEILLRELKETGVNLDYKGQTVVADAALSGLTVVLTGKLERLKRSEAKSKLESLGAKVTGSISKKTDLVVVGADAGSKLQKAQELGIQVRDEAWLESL

## Nc1nc(SCc2ccco2)nc2c1ncn2C1CCCO1 (stereo not shown) [Example 6, 2-[(2-furylmethyl)thio]-9-(tetrahydrofuran-2-yl)-9H-purin-6-amine]
S. pneumoniae LigA
  IC50: 1.8 µM

## Nc1nc(OCc2ccccc2)nc2c1ncn2C1CCCO1 (stereo not shown) [Example 25, 2-(benzyloxy)-9-(tetrahydrofuran-2-yl)-9H-purin-6-amine]
S. pneumoniae LigA
  IC50: 4 µM

## Nc1nc(OC2CCCCC2)nc2c1ncn2C1CCCO1 (stereo not shown) [Example 27, 2-(cyclohexyloxy)-9-(tetrahydrofuran-2-yl)-9H-purin-6-amine]
S. pneumoniae
  MIC: 8 µg/mL (≈ 26.4 µM)

## Nc1nc(OC2CCC3CCCCC3C2)nc2c1ncn2C1CCCO1 (stereo not shown) [Example 62, 2-(decahydronaphthalen-2-yloxy)-9-(tetrahydrofuran-2-yl)-9H-purin-6-amine]
S. pneumoniae
  MIC: 4 µg/mL (≈ 11.2 µM)

## Nc1nc(OC2CCCC2)nc2c1ncn2C1OCCC1N (stereo not shown) [Example 128, 9-(3-aminotetrahydrofuran-2-yl)-2-(cyclopentyloxy)-9H-purin-6-amine]
S. pneumoniae LigA
  IC50: 0.7 µM

## Nc1nc(OC2CCCC2)nc2c1ncn2[C@@H]1O[C@H](COCCO)[C@@H](O)[C@H]1O [Example 129, 2-(cyclopentyloxy)-9-[5-O-(2-hydroxyethyl)-β-D-ribofuranosyl]-9H-purin-6-amine]
S. pneumoniae
  MIC: 8 µg/mL (≈ 20.2 µM)

## Nc1nc(OCC2CCCC2)nc2c1ncn2[C@@H]1O[C@H](CO)[C@@H](O)[C@H]1O [Example 172, 2-(Cyclopentyl)methoxy-9-β-D-ribofuranosyl-9H-purine-6-amine]
S. pneumoniae
  MIC: 2 µg/mL (≈ 5.47 µM)
S. pneumoniae LigA
  IC50: 0.145 µM

## C=C[C@H]1O[C@@H](n2cnc3c(N)nc(OC4CCCC4)nc32)[C@H](O)[C@@H]1O [Example 259, 2-(cyclopentyloxy)-9-(5,6-dideoxy-β-D-ribo-hex-5-enofuranosyl)-9H-purin-6-amine]
S. pneumoniae LigA
  IC50: 0.5 µM

## COc1cccc(CO[C@H]2[C@@H](O)[C@H](n3cnc4c(N)nc(OC5CCCC5)nc43)O[C@@H]2C)c1 [Example 356]
S. pneumoniae
  MIC: 4 µg/mL (≈ 8.78 µM)
